The assay addresses T1, Y1 (Homo sapiens, UniProt P25929).
T1 sequence (P25929 1-384): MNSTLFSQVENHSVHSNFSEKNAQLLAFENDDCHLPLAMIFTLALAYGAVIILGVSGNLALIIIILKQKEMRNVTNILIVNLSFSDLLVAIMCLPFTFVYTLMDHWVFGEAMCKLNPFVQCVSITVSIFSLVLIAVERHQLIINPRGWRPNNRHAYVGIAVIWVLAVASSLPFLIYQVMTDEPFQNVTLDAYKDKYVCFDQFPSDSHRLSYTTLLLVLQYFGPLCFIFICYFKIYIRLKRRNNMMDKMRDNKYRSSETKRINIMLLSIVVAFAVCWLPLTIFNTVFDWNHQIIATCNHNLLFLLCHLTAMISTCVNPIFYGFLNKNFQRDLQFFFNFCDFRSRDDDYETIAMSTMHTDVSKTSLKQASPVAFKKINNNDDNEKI
Nature of the assay: Endogenous NPY response of host Bowes melanoma cells (low levels of Y1 responses). The conditions noted are these: 10 uM; human Bowes melanoma cells (HMCB).

With `NC(N)=NCCC[C@@H](NC(=O)C(c1ccccc1)c1ccccc1)C(=O)NCc1ccc(O)cc1` [BIBP3226], the “block of the endogenous NPY response” value is “completely blocks”.

Values taken from patent US6958347B2, “Aminophenanthridinone and aminophenanthridine as NPY-5 antagonists” (Pfizer Inc., priority 2002, dated 2005).
